What was measured:
[1] = tested on: middle cerebral artery occlusion (MCAO) model in mice; experiment: Neurobehavioral test (motor neurobehavior evaluation score 0-4) in mice of the middle cerebral artery occlusion model; format: in vivo; settings: 10 mg/kg (2 mg/mL) tail vein injection 5 hours after stroke, higher score = higher motor dysfunction (vehicle control 3)
Method: (§1) In order to simulate human brain stroke, an intravascular suture-occluded method was employed to establish a middle cerebral artery occlusion (MCAO) model in mice. Prior to experimentation, the body weights of the mice were measured and rectum temperatures were recorded. The mice were anesthetized with 4% halothane in 100% O2 followed by 0.5-1% halothane in 70% N2O and 30% O2 to maintain the anesthetized status. The mouse cerebral artery occlusion model is established according to the Tamura method (Focal cerebral ischemia in the rat: 1. Description of technique and early neuropathological consequences following middle cerebral artery occlusion. J Cereb Blood Flow Metab. 1981; 1(1):53-60. Tamura A, Graham D I, McCulloch J, Teasdale G M). […]
The body weights of the mice in the three test groups in Example 4 were measured and neurological examination was conducted concurrently. […] Since 15 days after stroke is no longer the acute stroke phase, the invention evaluated the status of the motor system of mice treated within the acute stroke phase and those treated after the acute stroke phase. The motor responses to be assessed are listed in Table 1 (Middle cerebral artery occlusion in the rat by intraluminal suture. Neurological and pathological evaluation of an improved model. Belayev L, Alonso O F, Busto R, Zhao W, Ginsberg M D. Stroke. 1996 September; 27(9):1616-22; discussion 1623). […]

[2] = tested on: middle cerebral artery occlusion (MCAO) model in mice; experiment: Brain infarct volume, atrophy and edema by Nissl staining in mice of the middle cerebral artery occlusion model; format: in vivo; settings: 10 mg/kg (2 mg/mL)
Method: as §1, with “M). The mouse was secured in prone position and an incision was introduced to the lateral of the head and neck portion by a scalpel to expose the right common carotid artery. The middle cerebral artery (MCA) was cauterized to simulate ischemia.” for “M).”
The mice of the middle cerebral artery occlusion model were sacrificed 15 days after the treatment with the three groups of drugs. Brain samples of the mice were collected and local ischemic injuries on the neuron gray matter of the mice brains were evaluated with Nissl staining using cresyl violet. […]

[3] = tested on: mouse stroke model; settings: intravenous injection of 100 mg/kg; cited from earlier work

| Compound | score of the motor neurobehavior evaluation ([1]; after 7 days of treatment) | score of the motor neurobehavior evaluation ([1]; after 15 days of treatment) | brain infarct volume ([2]; 5 hours after stroke, 15 days after treatment (vehicle control about 14%)) | brain atrophy (Nissl staining / infarct volume calculation) ([2]; 15 days after treatment) | hypotension / mortality (in words) [3] | infarct volume (in words) [3] |
| --- | --- | --- | --- | --- | --- | --- |
| recombinant-type plasminogen activator: recombinant-type plasminogen activator (rt-PA), thrombolytic agent | 2.3 | 2.6 | about 18% | atrophied after 15 days |  |  |
| OCCN(CCO)c1nc(N2CCCCC2)c2nc(N(CCO)CCO)nc(N3CCCCC3)c2n1 [Dipyridamole] |  |  |  |  | causes hypotension and increases the mortality rate | can efficiently reduce the infarct volume |
